From patent US20240285555A1, “COMPOSITIONS FOR THE TREATMENT OF COPPER DEFICIENCY AND METHODS OF USE” (priority 2018, published 2024)

Assays:
coa6Δ cells = experiment: Cellular and mitochondrial copper measurements by ICP-MS in yeast; assay type: cell-based, Saccharomyces cerevisiae; settings: 20 nM ES
Protocol: FIGS. 2A, 2B, 2C, 2D and 2E illustrate elesclomol supplementation rescues CcO assembly defects by restoring mitochondrial copper levels of yeast S. cerevisiae coa6Δ cells. FIGS. 2A-2C illustrate bioenergetic parameters of wild type (WT), coa6Δ, and coa6Δ cells supplemented with 20 nM ES were cultured in YP galactose medium until early stationary growth phase. […] Error bars represent mean±SD (n=3, two-tailed unpaired Student's t-test *p<0.05, **p<0.005).
Cellular and Mitochondrial Copper Measurements. Cellular and mitochondrial copper levels were measured using the Perkin Elmer DRC II Inductively Coupled Plasma-Mass Spectrometer (ICP-MS). Intact yeast cells and isolated mitochondrial pellets were washed with 100 μM EDTA containing water, weighed, and digested with 40% nitric acid (TraceSELECT, Sigma) at 90° C. for 18 h. Samples were diluted in ultrapure metal-free water (TraceSELECT, Sigma) and analyzed by ICP-MS. Copper standard solutions were prepared by appropriate dilutions of commercially available mixed metal standards (BDH Aristar Plus). Copper concentrations in mammalian cells were also measured by ICP-MS.
ES scavenges copper from the culture medium, enters the cell as an ES-copper complex, and selectively accumulates in mitochondria where it dissociates from copper. […]

SCO2 patient fibroblasts = experiment: Steady state COX2 levels in SCO2 patient fibroblasts; assay type: cell-based, human; settings: dose and time dependent
Protocol: Mammalian Cell Culture. The human control MCH46 and SCO2 patient fibroblasts as well as the rat H9c2 control and Ctr1^−/− cardiomyocytes were cultured in high glucose Dulbecco's modified Eagle's medium (DMEM) supplemented with 10% fetal bovine serum (Sigma) and 1 mM sodium pyruvate (Life Technologies). The mouse embryonic fibroblasts were cultured in DMEM 10% FBS, 1 mM sodium pyruvate, 1× minimum essential medium non-essential amino acids (MEM NEAA; Life Technologies 11140), 50 μg/mL uridine, and 1× Pen Strep Glutamine (Life Technologies 10378). All cell lines were cultured under 5% CO2 at 37° C. and were treated with indicated concentrations of ES for 3-6 days before harvesting. Whole cell protein was extracted in lysis buffer (BP-115, Boston BioProducts) supplemented with protease inhibitor cocktail (Roche Diagnostics) and the protein concentrations were determined by BCA assay (Thermo Scientific).
Immunoblotting and In-gel Activities. Sodium dodecyl sulfate polyacrylamide gel electrophoresis (SDS-PAGE) and Blue Native PAGE (BN-PAGE) were performed to separate denatured and native protein complexes, respectively. For SDS-PAGE, mitochondrial lysate ([…]) was separated on NuPAGE 4-12% Bis-Tris gels (Life Technologies, Carlsbad, CA). For BN-PAGE, yeast mitochondria were solubilized in buffer containing 1% digitonin (Life Technologies) by incubating for 15 min at 4° C. […]

[1] = test system: immortalized control (MCH46) and SCO2 patient fibroblasts, primary human skin fibroblasts (MW28); experiment: Cell viability of human fibroblasts (total cellular ATP, Cell-Titre GLo); assay type: cell-based
Protocol: FIGS. 5A and 5B illustrate cell viability of immortalized and primary human fibroblasts cell lines treated with increasing concentrations of elesclomol. […] Cell viability was measured by quantifying total cellular ATP levels by Cell-Titre GLo assay (Promega). Data are expressed as mean±SD (n=3).
ES Supplementation Rescues Levels of CcO Subunits in Mammalian Cell Lines with Genetic Defects in Copper Metabolism. To expand upon the findings in yeast and to test the efficacy of ES in mammalian cell culture models of copper deficiency, a Ctr1 knockout rat H9c2 cardiomyocyte cell line was constructed. […] As expected, the loss of Ctr1 led to a ˜4-fold decrease in the levels of intracellular copper (FIG. 4A) and a concomitant reduction in the levels of the CcO subunitCOX1 and superoxide dismutase, SOD1 (FIG. 4B). This validated Ctr1^−/− cell line was used to test the efficacy of ES in rescuing COX1, a copper-containing subunit of CcO and SOD1, superoxide dismutase, another copper-containing enzyme SOD1. […] Finally, the efficacy of ES in rescuing CcO defects in SCO2 patient fibroblasts that were previously shown to have a COX2 deficiency was tested.

[2] = test system: mottled-brindled (mo-br) mouse; experiment: Survival of Menkes (mo-br) mice after subcutaneous injections; assay type: in vivo
Protocol: Kaplan-Meier Survival of mice after subcutaneous injections of ES-Cu(II) on postnatal days 7 and 10. Log-Rank statistical analysis was conducted to assess significance of survival among mo-br mice cohorts. Mo-br mice treated with 3.625 mg/kg/dose.
FIG. 8 illustrates mean body weight gain of mice after subcutaneous injections on postnatal days 7 and 10. Cohorts and number of mice/cohort are designated as follows: WT vehicle (n=13), WT Cu(II)-ES (n=12), mo-br vehicle (n=9), mo-br Cu(II)-ES (n=27), mo-br Cu(II)-2His (n=6), and mo-br ES (n=6). Growth curves are reported as the mean of each cohort±SD measured weekly.
To evaluate the potential of Cu(II)-ES in a mouse model of human copper deficiency disorder, the well-characterized mottled-brindled (mo-br) mouse model (C57BL/6-Atp7a^mo-br/J, Jackson Laboratory Stock #002566) that closely mimics the clinical and biochemical phenotypes of Menkes disease was chosen. Like in humans, these mice are characterized by mutation in ATP7a, which is an X-linked gene and therefore its mutation only affects males.

[3] = test system: Coa6 knockdown zebrafish embryos
Protocol: Batches of 50 fertilized embryos injected with either translation blocking or mismatch control morpholinos were treated with or without 100 nM ES at 3 hpf, before making observations at the indicated time points (n % 30 for each time point and treatment).
Zebrafish Experiments. […] Wild type AB strain and Ctr1 heterozygous zebrafish were maintained and crossed using standard methods. Embryos were staged and raised in Egg Water at 28.5° C. For drug treatments, embryos from Ctr1 heterozygous crosses were incubated in 10 nM ES diluted in Egg Water beginning at 3 hours post-fertilization (hpf). For imaging live embryos at 48 hpf, representative embryos of each sample were anesthetized in Tricaine and imaging was performed on an Olympus SZX12 stereomicroscope. […] Morpholino-based experiments were performed.

CN(NC(=O)CC(=O)NN(C)C(=S)c1ccccc1)C(=S)c1ccccc1 [ES, elesclomol]
mitochondrial copper levels (coa6Δ cells): almost complete rescue | total cellular copper levels (coa6Δ cells): moderately increased | steady state levels of COX2 (SCO2 patient fibroblasts): partially rescue | toxicity in immortalized cell lines compared to primary cultures [1]: much more pronounced toxicity in immortalized cell lines | concentration at which ES toxicity occurs relative to the dose that rescued COX2 levels ([1]; immortalized fibroblasts, 36 hours): 20 × | mean survival time ([2]; mouse, in vivo): 17.0 ± 0.9 days | weekly time point by which all mice of the cohort had expired ([2]; subcutaneous, postnatal days 7 and 10): ≤ 2 week | pericardial edema ([3]; 100 nM ES): prevented pericardial edema | rescue of morphological phenotype score ([3]; 100 nM ES at 3 hpf, scored at 24, 48, 72, 96 hpf): rescue with 100 nM ES treatment was observed as early as 48 hpf | heart rate of Coa6 knockdown embryos ([3]; 100 nM ES, 72 and 96 hpf): significantly increased the heart rate
